Laboratory results reported in article PMC6792352, “Limited Chemical Structural Diversity Found to Modulate Thyroid Hormone Receptor in the Tox21 Chemical Library” (Environmental Health Perspectives, 2019).
Structures can show the parent of a compound that is named as a salt.

Test: in vitro
Conditions: rat, gh3-tre-luc cells, AC50 (uM) modified / 1000
For `COc1cc(OC)nc(Oc2cccc(Oc3nc(OC)cc(OC)n3)c2C(=O)O)n1` [Bispyribac-sodium], the CC50 at 24 h was > 90 µM. Compound `CCCCCCCCCCCCCC[N+](C)(C)C` [Myristyltrimethylammonium chlorideN,N,N-Trimethyltetradecan-1-aminium chloride] has a CC50 at 24 h of 9.07 µM. In the case of `Cc1ccc(S(=O)(=O)NCl)cc1` [Chloramine T hydrate (1:x)], the CC50 at 24 h was > 80 µM. Compound `CC[C@H]1CN2CCc3cc(OC)c(OC)cc3[C@@H]2C[C@@H]1C[C@H]1NCCc2cc(OC)c(OC)cc21` [Emetine dihydrochloride] has a CC50 at 24 h of 0.065 µM. For `CCCCCCCCCCCCCC[n+]1ccc(C)cc1` [Miripirium chloride], the CC50 at 24 h was 7.5 µM. For `Oc1ccc(Cc2ccc(O)cc2)cc1` [Bis(4-hydroxyphenyl)methane], the CC50 at 24 h was > 90 µM. With `O=C1/C(=C/c2cccs2)CCC/C1=C\c1cccs1` [Tenylidone] the CC50 at 24 h was > 50 µM. With `BrCBr` [Dibromomethane] the CC50 at 24 h was > 90 µM. With `CS(=O)(=O)NC(=O)CCC/C=C\C[C@H]1C(=O)C[C@@H](O)[C@@H]1/C=C/[C@@H](O)COc1ccccc1` [Sulprostone] the CC50 at 24 h was > 50 µM. For `O=C1CCC(c2ccc(-n3ccnc3)cc2)=NN1` [Imazodan], the CC50 at 24 h was > 50 µM. With `CCOc1ccc(S(=O)(=O)O)c2cccnc12` [Actinoquinol] the CC50 at 24 h was > 50 µM. For `c1ccc(C2(c3ccccc3)CC2C2=NCCN2)cc1` (stereo not drawn) [Cifenline succinate], the CC50 at 24 h was > 50 µM. With `NNC(=O)CCCCC(=O)NN` [Hexanedihydrazide] the CC50 at 24 h was > 90 µM. With `CC1(C)[C@H](C(=O)O[C@H](C#N)c2cccc(Oc3ccccc3)c2)[C@@H]1C=C(Cl)Cl` [alpha-Cypermethrin] the CC50 at 24 h was > 90 µM. In the case of `CCC(COC(=O)c1cc(OC)c(OC)c(OC)c1)(c1ccccc1)N(C)C` (stereo not drawn) [Trimebutine maleate], the CC50 at 24 h was > 50 µM. For `C=CC(=O)OCC1CCCO1` (stereo not drawn) [Tetrahydrofurfuryl acrylate], the CC50 at 24 h was > 90 µM. With `C[N+](C)(C)CCO` [Cholin acetate] the CC50 at 24 h was > 50 µM. With `CCN(CC)CC1CCCCN1CC(=O)N1c2ccccc2C(=O)Nc2cccnc21` (stereo not drawn) [AF-DX 116] the CC50 at 24 h was > 50 µM. With `COC(=O)C1=C(C)NC(C)=C(C(=O)OC(C)(C)CN(C)CCC(c2ccccc2)c2ccccc2)C1c1cccc([N+](=O)[O-])c1` (stereo not drawn) [lercanidipine hydrochloride] the CC50 at 24 h was 8.65 µM. In the case of `CC(=O)OC[C@H]1O[C@@H](n2ncc(=O)[nH]c2=O)[C@H](OC(C)=O)[C@@H]1OC(C)=O` [6-Azaribine], the CC50 at 24 h was > 50 µM. With `NCCN` [Ethylenediamine] the CC50 at 24 h was > 90 µM. With `CN(CCCCCCCCCCN(C)C(=O)Oc1cccc([N+](C)(C)C)c1)C(=O)Oc1cccc([N+](C)(C)C)c1` [Demecarium bromide] the CC50 at 24 h was > 20 µM. In the case of `C[C@@H]1O[C@@H](O[C@@H]2[C@@H](O)[C@H](OCCc3ccc(O)c(O)c3)O[C@H](CO[C@@H]3O[C@H](CO)[C@@H](O)[C@H](O)[C@H]3O)[C@H]2OC(=O)/C=C/c2ccc(O)c(O)c2)[C@H](O)[C@H](O)[C@H]1O` [Echinacoside], the CC50 at 24 h was > 90 µM. With `CCCCCCCCCCCC(=O)OC[C@@H](O)[C@H]1OC[C@H](O)[C@H]1O` [Sorbitan monododecanoate] the CC50 at 24 h was > 50 µM. Work on `COC(=O)[C@]1(C)CCC[C@@]2(C)[C@H]1CC=C1C=C(C(C)C)CC[C@@H]12` [Methyl abietate] yielded a CC50 at 24 h of 42.6 µM. In the case of `Cc1c(C(=O)c2c[nH]n(C)c2=O)ccc(S(C)(=O)=O)c1C1=NOCC1` [Topramezone], the CC50 at 24 h was > 40 µM. For `O=S(=O)(O)c1cc(O)c2ccc(Nc3ccccc3)cc2c1` [4-Hydroxy-7-(phenylamino)naphthalene-2-sulfonic acid], the CC50 at 24 h was > 90 µM. In the case of `CCC(=O)O[C@@H]1C[C@H]2CC[C@]1(C)C2(C)C` (racemic) [Isobornyl propanoate], the CC50 at 24 h was > 90 µM. In the case of `CN(C)c1ccc(C2(c3ccc(N(C)C)cc3)OC(=O)c3cc(N(C)C)ccc32)cc1` [Crystal Violet lactone], the CC50 at 24 h was > 90 µM. For `CCC(N)(CO)CO` [2-Amino-2-ethyl-1,3-propanediol], the CC50 at 24 h was > 90 µM. For `CCCCCCCCC(CO)CCCCCC` (stereo not drawn) [2-Hexyl-1-decanol], the CC50 at 24 h was > 90 µM. In the case of `CC(O)CN` (stereo not drawn) [1-Amino-2-propanol], the CC50 at 24 h was > 90 µM. With `O=C(C(=O)c1ccc(Br)cc1)c1ccc(Br)cc1` [4,4'-Dibromobenzil] the CC50 at 24 h was > 30 µM. In the case of `NC(=O)OCCCc1ccccc1` [Phenprobamate], the CC50 at 24 h was > 50 µM. With `O=C(O)c1ccc(O)c(O)c1` [3,4-Dihydroxybenzoic acid] the CC50 at 24 h was > 90 µM. For `Nc1nnnn1-c1ccccc1` [Fenamol], the CC50 at 24 h was > 50 µM. With `O=[N+]([O-])c1cccc(S(=O)(=O)O)c1` [Sodium 3-nitrobenzenesulfonate] the CC50 at 24 h was > 90 µM. Compound `C[C@@H](O[C@H]1OCCN(Cc2n[nH]c(=O)[nH]2)[C@H]1c1ccc(F)cc1)c1cc(C(F)(F)F)cc(C(F)(F)F)c1` [Aprepitant] has a CC50 at 24 h of 11 µM. With `CC[C@H]1OC(=O)C[C@@H](O)[C@H](C)[C@@H](O[C@@H]2O[C@H](C)[C@@H](O)[C@H](N(C)C)[C@H]2O)[C@@H](CCN2C[C@H](C)C[C@H](C)C2)C[C@@H](C)C(=O)/C=C/C(C)=C/[C@@H]1CO[C@@H]1O[C@H](C)[C@@H](O)[C@@H](OC)[C@H]1OC` [Tilmicosin] the CC50 at 24 h was > 50 µM. With `O=P(O)(O)Oc1ccccc1` [Phenyl dihydrogen phosphate] the CC50 at 24 h was > 90 µM. With `Cn1c([N+](=O)[O-])cnc1COC(N)=O` [Ronidazole] the CC50 at 24 h was > 50 µM. For `CC(C)COC(=O)OCN1C(=O)CN(CCN2CC(=O)N(COC(=O)OCC(C)C)C(=O)C2)CC1=O` [Sobuzoxane], the CC50 at 24 h was > 50 µM. In the case of `OCc1cccnc1` [Nicotinyl alcohol], the CC50 at 24 h was > 50 µM. In the case of `COc1cc(CNC(=O)CCCC/C=C/C(C)C)ccc1O` [Capsaicin], the CC50 at 24 h was > 90 µM. In the case of `CCCCOCCOCCSC#N` [2-(2-Butoxyethoxy)ethyl thiocyanate], the CC50 at 24 h was > 100 µM. `CC(CN1c2ccccc2Sc2ccc(S(=O)(=O)N(C)C)cc21)N(C)C` (stereo not drawn) [Fonazine] showed a CC50 at 24 h of 21.4 µM. With `N=c1c[n+](N2CCOCC2)[n-]o1` [3-Morpholinosydnonimine hydrochloride] the CC50 at 24 h was > 50 µM. With `OC[C@H]1O[C@@H](n2cnc3c(S)ncnc32)[C@H](O)[C@@H]1O` [Thioinosine] the CC50 at 24 h was > 50 µM. For `CC1COc2ccccc2N1` (stereo not drawn) [3-Methyl-3,4-dihydro-2H-1,4-benzoxazine], the CC50 at 24 h was > 90 µM. With `Nc1ccc(O)c([N+](=O)[O-])c1` [4-Amino-2-nitrophenol] the CC50 at 24 h was > 90 µM. In the case of `NNC(=O)c1ccccc1` [Benzoyl hydrazine], the CC50 at 24 h was > 90 µM. `CN(C)CCC(O)(c1ccccc1)c1ccccc1Cl` (stereo not drawn) [Chlophedianol] gave a CC50 at 24 h of 26 µM. With `CN(C)CCc1c[nH]c2cccc(OP(=O)(O)O)c12` [Psilocybin] the CC50 at 24 h was > 90 µM. For `CCCCN1CCCC1C(=O)Nc1c(C)cc(C)cc1C` (stereo not drawn) [Bumecaine], the CC50 at 24 h was > 50 µM. For `COc1c(O)cc2c(c1O)[C@@H]1O[C@H](CO)[C@@H](O)[C@H](O)[C@H]1OC2=O` [Bergenin monohydrate], the CC50 at 24 h was > 20 µM. For `O=[N+]([O-])c1nccn1CO[C@@H](CO)[C@H](O)CO` [Doranidazole], the CC50 at 24 h was > 50 µM. `CN(C)CCCN1c2ccccc2Sc2ccccc21` [Promazine hydrochloride] showed a CC50 at 24 h of 4.95 µM. Work on `CCCC(c1cc(C(C)(C)C)c(O)cc1C)c1cc(C(C)(C)C)c(O)cc1C` [4,4'-Butane-1,1-diylbis(2-tert-butyl-5-methylphenol)] yielded a CC50 at 24 h of 3.97 µM. For `Clc1cnc(Oc2ccc(Oc3ncc(Cl)cc3Cl)cc2)c(Cl)c1` [1,4-Bis[2-(3,5-dichloropyridyloxy)]benzene], the CC50 at 24 h was > 60 µM. In the case of `CC(O)CCCCn1c(=O)c2c(ncn2C)n(C)c1=O` (racemic) [(+/-)-Lisofylline], the CC50 at 24 h was > 50 µM. In the case of `CN1CCN(C(=O)C2CCCCC2)CC1` [Pexantel], the CC50 at 24 h was > 50 µM. With `CCOC(=O)c1c(N)sc2c1CCN(Cc1ccccc1)C2` [Tinoridine] the CC50 at 24 h was > 50 µM. For `OCCCc1ccccc1` [3-Phenyl-1-propanol], the CC50 at 24 h was > 50 µM.

Same assay, conditions: rat, gh3-tre-luc cells, AC50 (uM) modified / 1000, Tox21_110001=Tox21_111132; viability, 1 nM T3 present, 24 h
`C[C@H]1CC[C@@H]2[C@@H](C)[C@H]3[C@H](C[C@H]4[C@@H]5CC=C6C[C@@H](O[C@@H]7O[C@H](CO)[C@H](O)[C@H](O[C@@H]8O[C@H](CO)[C@@H](O)[C@H](O)[C@H]8O)[C@H]7O[C@@H]7O[C@@H](C)[C@H](O)[C@@H](O)[C@H]7O)CC[C@]6(C)[C@H]5CC[C@]34C)N2C1` [alpha-Solanine] gave a CC50 at 24 h of 17.5 µM.

Same assay, conditions: rat, gh3-tre-luc cells, AC50 (uM) modified / 1000, Tox21_110001=Tox21_111802; viability, 1 nM T3 present, 24 h
With `O=C(CCl)c1ccc(Oc2ccc(C(=O)CCl)cc2)cc1` [Clofenoxyde] the CC50 at 24 h was > 50 µM.

Same assay, conditions: rat, gh3-tre-luc cells, AC50 (uM) modified / 1000, Tox21_110001=Tox21_111815; viability, 1 nM T3 present, 24 h
For `CC(C)C(Br)C(=O)NC(N)=O` (stereo not drawn) [Bromisovalum], the CC50 at 24 h was > 50 µM.

Same assay, conditions: rat, gh3-tre-luc cells, AC50 (uM) modified / 1000, Tox21_110001=Tox21_112258; viability, 1 nM T3 present, 24 h
In the case of `O=C(C[S+]([O-])C(c1ccccc1)c1ccccc1)NO` (stereo not drawn) [Adrafinil], the CC50 at 24 h was > 50 µM.

Same assay, conditions: rat, gh3-tre-luc cells, AC50 (uM) modified / 1000, Tox21_110001=Tox21_112826; viability, 1 nM T3 present, 24 h
For `C[C@H]1[C@@H]2Cc3ccc(O)cc3[C@@]1(C)CCN2C` [(+)-Metazocine fumarate (2:1)], the CC50 at 24 h was > 200 µM.

Same assay, conditions: rat, gh3-tre-luc cells, AC50 (uM) modified / 1000, Tox21_110001=Tox21_112855; viability, 1 nM T3 present, 24 h
In the case of `C[C@@H]1[C@H]2Cc3ccc(O)cc3[C@]1(C)CCN2C` [(-)-Metazocine fumarate (1:1)], the CC50 at 24 h was > 200 µM.

Same assay, conditions: rat, gh3-tre-luc cells, AC50 (uM) modified / 1000, Tox21_110001=Tox21_112880; viability, 1 nM T3 present, 24 h
For `COc1ccc2[nH]cc(CCN(C(C)C)C(C)C)c2c1` [5-Methoxy-N,N-diisopropyltryptamine hydrochloride], the CC50 at 24 h was > 100 µM.

Same assay, conditions: rat, gh3-tre-luc cells, AC50 (uM) modified / 1000, Tox21_110001=Tox21_200104; viability, 1 nM T3 present, 24 h
Compound `C[C@H]1CC[C@@H]2[C@@H](C)[C@H]3[C@H](C[C@H]4[C@@H]5CC=C6C[C@@H](O[C@@H]7O[C@H](CO)[C@H](O)[C@H](O[C@@H]8O[C@H](CO)[C@@H](O)[C@H](O)[C@H]8O)[C@H]7O[C@@H]7O[C@@H](C)[C@H](O)[C@@H](O)[C@H]7O)CC[C@]6(C)[C@H]5CC[C@]34C)N2C1` [alpha-Solanine] has a CC50 at 24 h of 16.1 µM.

Same assay, conditions: rat, gh3-tre-luc cells, AC50 (uM) modified / 1000, Tox21_110001=Tox21_200535; viability, 1 nM T3 present, 24 h
In the case of `O=CC(Br)(Br)Br` [Tribromoacetaldehyde], the CC50 at 24 h was 25.5 µM.
